Measurements taken from US6696495B2, “Treatment of disorders secondary to organic impairments” (Snowden Pharmaceuticals, LLC, priority 1998, dated 2004).

What was measured:
[1] = system: Severe Atypical Psychosis; experiment: Case history 1, Sibutramine Patient No. 97; type: in vivo, human; settings: sibutramine 10 mg orally three times a day, added to carbamazepine, quetiapine, valproic acid; person
[2] = system: Violence and Self-Laceration; experiment: Case history 2, Sibutramine Patient No. 3; type: in vivo, human
Description: 2. Violence and Self-Laceration (Problem No. 1) Sibutramine Patient No. 3
They were started on sibutramine 10 mg orally every morning for their violence, self-abuse and obesity.

[3] = system: Severe Post-Traumatic Stress Reaction
Description: Finally, this patient was taken off of fluoxetine 20 mg when sibutramine treatment was initiated.

[4] = system: Intracerebral Porencephalic Cyst With Oscillopsia; experiment: Case history 14, Sibutramine Patient No. 111; type: in vivo, human
Text: 14. Intracerebral Porencephalic Cyst With Oscillopsia (Problem No. 5) Sibutramine Patient No. 111
A person suffered a severe head injury in 1976 with a fractured skull, coma, and an intracerebral (porencephalic) cyst caused by the traumatic blockage of their cerebral spinal fluid in their brain. This cyst was repaired surgically with a brain ventricular—jugular vein shunt. This had permitted them to work continuously with concomitant treatment with carbamazepine, valproic acid, and dextroamphetamine until early 1998 when they began to suffer severe attacks of bizarrely altered vision, dizziness, ataxia, and confusion. The attacks progressed to several times per week, lasting 4-24 hours in duration. […] There is no known treatment for these attacks and they were therefore unable to drive or work safely. They were placed on total disability. They were started on 10 mg of sibutramine as needed for these oscillopsia attacks. […] After 2 months at the 5 mg tid dosage, the patient again noted a recurrence of oscillopsia on a 2-3 times weekly basis.

[5] = system: Severe ADHD Refractory to All Other Medications With Executive (Frontal Lobe) Problems
Text: A person was seen first for a life-long history of severe hyperactivity, distractibility, disorganization, poor memory of studied material, very poor concentration, and school failure despite a high IQ. There was no known history of head injury, other neurological disease, nor metabolic disease.

[6] = system: ADHD Refractory to Other Treatments; type: in vivo, human; settings: sibutramine 10 mg every morning by mouth; person
Description: 16. ADHD Refractory to Other Treatments (Problem No. 6) Sibutramine Patient No. 16
The amphetamines made their nervous, jittery, and unable to sleep. […] They were started on sibutramine 10 mg every morning by mouth. […] After the first month, their dose was changed to 5 mg three times daily due to a five hour duration of effects.

[7] = system: Sick Building Syndrome (SBS); experiment: Case history 20; type: in vivo, human; settings: sibutramine 5 mg. t.i.d. Person
Text: 20. Sick Building Syndrome (SBS)
This person began to note an increasing fatigue, poor concentration, rash, and wheezing which they related to exposure to unknown foreigns in the large building in which they worked. They also noted that more than 40 other employees had similar symptoms. […] They were then forced to leave their job in this building with a gradual relief of all symptoms over the next several weeks.

[8] = Overall clinical observations in the patients treated with sibutramine; type: in vivo, human
Text: The term sibutramine as used herein means compounds of sibutramine hydrochloride monohydrate, more specifically N,N-dimethyl-1-[1-(4-chlorophenyl)cyclobutyl]-3-methylbutylamine hydrochloride preferably in its monohydrate form, and enantiomers and analogues thereof, as described in U.S. Pat. Nos. 4,746,680, 4,929,629 and 5,436,272. Sibutramine is believed to inhibit reuptake of norepinephrine, serotonin and dopamine thereby intensifying their effects in the brain. Sibutramine is commercially available as MERIDIA®, Knoll Pharmaceutical Company, Mount Olive, N.J. Capsules are presently available with discrete dosages of 5, 10 and 15 mg for oral administration. The sibutramine is administered in a pharmaceutically active dose. The preferred dosage is about 5 mg three times a day but there is variation between patients for the best dose. It is believed that the cytochrome P450 system differs in individuals and the dose must be determined empirically in each patient. The effect of the cytochrome P450 system on metabolism of psychotropic drugs is discussed in “Intercom: The Experts Converse”, published by The Journal of Clinical Psychiatry, November 1995. […] It is possible that higher or lower doses can be used depending upon each individual. Therefore, more flexibility in available dosage is needed. Furthermore, means of administration such as injection, rectal suppository, or transdermal patches may be utilized. Finally, a long-acting slow-release means such as oral tablet or capsule would be the preferred route in view of the rapid metabolism noted (5 hour duration of action usually) in most of the patients.
Although the use of sibutramine has been described for the treatment of conditions such as obesity, depression, diabetic hyperglycemia, hyperlipidemia, senile dementia and related conditions, and Parkinson's disease, it has been discovered that sibutramine can be successfully used in treating other problems unrelated to these conditions. […] For example, patients with ADD previously treated with stimulants found it easier to eat when treated with sibutramine and gained weight. […] It was generally necessary to continue anti-depressant therapy along with the sibutramine therapy.
Above and beyond the known effects of sibutramine on serotonin, dopamine and norepinephrine activation, there is believed to be an effect of this medication on the endorphic opiate neurotransmitter system which is evident in the patients who have been relieved of pain, rage, anger, self-mutilation and particularly addiction to heroin. […] It would appear that sibutramine activates endorphins or, at the very least, modifies the endorphinergic opioid systems to promote serenity and lack of pain and stress, and to reduce craving for heroin. Such a mechanism which was previously unsuspected may have also contributed to the therapeutic effects of sibutramine herein described for PTSD, asocial behavior and fibromyalgic pain which have not been helped by serotonin, dopamine and norepinephrine potentiators. This is in contradistinction to the therapeutic effects of sibutramine on ADHD, chronic fatigue, and the symptoms of Tourette's and non-Tourette's diseases. Finally, a differentiation between the serotonin, dopamine and norepinephrine potentiation versus the opiate-like therapeutic effects of sibutramine may be made in terms of duration of action, whereas the serotonin, dopamine, norepinephrine agonist effects lasted in most patients for only 4-6 hours (therefore requiring tid dosage), the opiate effects appear to last all day and require only a single AM dosage.
These benefits were lost rapidly when either the patient was taken off sibutramine or when steroids, such as cortisone were concomitantly administered.

[9] = sibutramine 15 mg three times a day

CC(C)CC(N(C)C)C1(c2ccc(Cl)cc2)CCC1.Cl (stereo not shown) [sibutramine, N,N-dimethyl-1-[1-(4-chlorophenyl)cyclobutyl]-3-methylbutylamine hydrochloride]
hallucinations, confusion, paranoia, and anxiety [1]: marked decrease in hallucinations, confusion, paranoia, and anxiety
energy, seizures, violence and self-abuse ([2]; sibutramine 10 mg orally every): gained new energy, had fewer seizures, and was no longer violent or self-abusive
time to response ([2]; sibutramine 10 mg orally every morning): less than a week
wear-off of effects after administration ([2]; single morning dose 10 mg): 5 to 6 h
depression ([3]; human, in vivo): became severely depressed despite the relief from PTSD
PTSD symptoms and sedation at lower dosage ([3]; less than 1 mg once a day): provided relief again from their PTSD symptoms but without the sedation
side effects ([3]; one-half of the smallest capsule (5 mg), deficiency in P-450 cytochrome system enzymes): produced drowsiness, sugar craving, and weight gain
PTSD reaction to thunder ([3]; sibutramine 10 mg in the morning, person): completely oblivious of their former psychotic fear of thunder
symptoms after sibutramine was stopped ([3]; stopped after one and a half months): rapid return of the fear of thunder, sound and light sensitivity, exaggerated startle reflex, headaches, and nightmares of life and death situations
oscillopsia attacks ([4]; 10 mg of sibutramine as needed, person): appeared to help
recurrence of oscillopsia ([4]; after 2 months at 5 mg tid): 2-3 times weekly
oscillopsia attacks in the next four weeks ([4]; sibutramine 5 mg three times daily): only one such attack
oscillopsia attacks ([4]; sibutramine 10 mg tid): absence of attacks
maximum duration of a single dose effect ([5]; rapid catabolism): 4 to 5 h
ability to plan and execute (executive function) [5, 9]: marked improvement in their ability to form appropriate, organized plans and execute them promptly without procrastination or distraction
complaints [5, 9]: being “too calm” with a loss of the exciting high-risk behavior of the past
calm, concentration, retention of information ([5]; sibutramine 15 mg three times a day, person): the first medication to calm them and permit careful, quiet concentration and retention of information
effect on ADHD [6]: a calming and an alerting effect
cognitive, fatigue and allergic symptoms [7]: rapid relief of the cognitive and fatigue symptoms, but no relief from the allergic symptomatology
highest dose ([8]; 15 mg 3 times daily): 45 mg
neurogenesis ([8]; believed, evidenced by increase in the hippocampus, enhanced mental and motor skills): induced neurogenesis
lowest effective dose ([8]; human, in vivo): 0.25 mg daily
onset of improvement ([8]; human, in vivo): alleviated within minutes or hours of treatment
duration of serotonin, dopamine, norepinephrine agonist effects ([8]; most patients): 4 to 6 h
depression ([8]; patients removed from anti-depressant medication): became depressed when removed from the anti-depressant medication and treated with sibutramine alone
symptoms of Post Traumatic Stress ([8]; patients with Post Traumatic Stress): relieved the symptoms of Post Traumatic Stress
duration of opiate effects ([8]; single AM dosage): last all day
duration of action ([8]; usually, in most of the patients): 5 h
